Test results from patent publication US20240400560A1, “BICYCLIC HETEROCYCLIC DERIVATIVE HAVING VIRAL GROWTH INHIBITORY ACTIVITY AND PHARMACEUTICAL COMPOSITION CONTAINING SAME” (Shionogi & Co., Ltd., priority 2021, published 2024).
pEC50, pIC50: −log10 of the molar value. Read-outs that look alike come from different tables or passages of the source.

Tests used:
SARS-CoV-2 = experiment: Inhibitory activity of cytopathic effect (CPE) in HEK293T/ACE2-TMPRSS2 cells; format: cell-based; conditions: Severe acute respiratory syndrome coronavirus 2, HEK-293T, 72 h, HEK293T/ACE2-TMPRSS2 cells
SARS-CoV-2 3CL protease = SARS-CoV-2 3CL protease (Severe acute respiratory syndrome coronavirus 2, UniProt P0DTD1); experiment: Inhibitory activity test against SARS-CoV-2 3CL proteases; format: biochemical; conditions: read-out: IC50 (50% SARS-CoV-2 3CL protease inhibitory concentration)
[1] = cultured 3 days, CellTiter-Glo 2.0 luminescence, read-out: EC50 (50% SARS-CoV-2 infected cell death inhibitory concentration)
[2] = 50% SARS-CoV-2 infected cell death inhibitory concentration, CellTiter-Glo 2.0 after 3 days culture, read-out: EC50

Row | Compound | pEC50 (SARS-CoV-2; [1]) | pIC50 (SARS-CoV-2 3CL protease) | pEC50 (SARS-CoV-2; [2])
1 | COc1nc(N2CC[C@@H](O)C2)cc2c1c(=O)n(-c1cncc(C#N)c1)c(=O)n2-c1ccc(F)c(F)c1 [Compound I-1027] | > 7.00 | > 7.00 | –
2 | COc1nc2c(=O)n(Cc3ncn(C)n3)c(=O)n(Cc3cc(Cl)c(F)cc3C)c2cc1-c1nc(C(C)(C)O)ccc1Cl [Compound I-0882] | > 7.00 | > 7.00 | –
3 | COc1nc(N2C[C@@H](F)[C@@H](OC)C2)cc2c1c(=O)n(-c1cnc3cc(F)ccn13)c(=O)n2-c1ccc(F)c(Cl)c1 [Compound I-1052] | > 7.00 | > 7.00 | –
4 | COc1nc2c(=O)n(Cc3ncn(C)n3)c(=O)n(Cc3cc(F)c(F)c(Cl)c3)c2cc1-c1cc2c(cc1Cl)NC(=O)C2 [Compound I-0700] | – | 9.04 | 7.61
5 | CNc1cc2c(c(OC)n1)c(=O)n(-c1cnc3cc(F)ccn13)c(=O)n2-c1ccc(F)c(Cl)c1 [Compound I-1042] | > 7.00 | > 7.00 | –
6 | COc1nc2c(=O)n(Cc3ncn(C)n3)c(=O)n(Cc3cc(Cl)c(F)cc3C)c2cc1-c1ncc(F)cc1Cl [Compound I-0580] | > 7.00 | > 7.00 | –
7 | COc1nc(N2C[C@H]3C[C@@H]2CO3)cc2c1c(=O)n(-c1cnc3cc(F)ccn13)c(=O)n2-c1ccc(F)c(Cl)c1 [Compound I-0989] | > 7.00 | > 7.00 | –
8 | CCNc1cc2c(c(OC)n1)c(=O)n(-c1cncc(Cl)c1)c(=O)n2-c1ccc(F)c(Cl)c1 [Compound I-0966] | – | 8.42 | 8.05
9 | COc1nc(N2CC[C@@H](O)C2)cc2c1c(=O)n(-c1cncc(OC(F)F)c1)c(=O)n2-c1ccc(F)c(F)c1 [Compound I-1040] | > 7.00 | > 7.00 | –
10 | O=c1c2c(=O)n(-c3cnc4cc(F)ccn34)c(=O)n(-c3ccc(F)c(Cl)c3)c2cc2n1CC[C@H]1CCCCN21 [Compound I-1063] | 6.00 to 7.00 | > 7.00 | –
11 | Cn1cnc(Cn2c(=O)c3c(=O)n(C)c(N4C[C@@H]5CC[C@H]4C5)cc3n(Cc3cc(F)c(F)c(Cl)c3)c2=O)n1 [Compound I-0930] | 6.00 to 7.00 | > 7.00 | –
12 | COc1nc(N2C[C@H]3COC[C@H]3C2)cc2c1c(=O)n(-c1cnc3cc(F)ccn13)c(=O)n2-c1ccc(F)c(Cl)c1 [Compound I-0985] | > 7.00 | > 7.00 | –
13 | Cl.[2H]C([2H])([2H])O[C@@H]1CCN(c2cc3c(c(OC)n2)c(=O)n(-c2cnc4cc(F)c(F)cn24)c(=O)n3-c2ccc(F)c(Cl)c2)C1 [Compound I-0962] | > 7.00 | > 7.00 | –
14 | C=C(C)c1cc2c(c(OC)n1)c(=O)n(-c1cnc3cc(F)ccn13)c(=O)n2-c1ccc(F)c(Cl)c1 [Compound I-1019] | – | 7.96 | 6.24
15 | COc1nc2c(=O)n(Cc3ncn(C)n3)c(=O)n(Cc3cc(F)c(F)c(Cl)c3)c2cc1-c1cc(C(C)(C)O)ccc1Cl [Compound I-0701] | – | 8.30 | 7.80
16 | COc1nc(N2CC[C@H](OC)C2)cc2c1c(=O)n(-c1cnc3cc(F)ccn13)c(=O)n2-c1ccc(F)c(Cl)c1 [Compound I-0742] | > 7.00 | > 7.00 | –
17 | COc1nc(N2CCC(F)(F)C2)cc2c1c(=O)n(-c1cncc(C)c1)c(=O)n2-c1ccc(F)c(Cl)c1 [Compound I-0954] | > 7.00 | > 7.00 | –
18 | COc1cc(-n2c(=O)n(Cc3ncn(C)n3)c(=O)c3c(OC)nc(N4CC[C@@H](F)C4)cc32)cc(Cl)c1F [Compound I-0804] | > 7.00 | > 7.00 | –
19 | CCn1c(-c2cc(C#N)ccc2Cl)cc2c(c1=O)c(=O)n(-c1cnc3cc(F)ccn13)c(=O)n2Cc1cc(F)c(F)c(F)c1 [Compound I-0739] | – | 9.01 | 6.94
20 | O=c1[nH]c(N2CCC[C@@H]2CO)cc2c1c(=O)n(-c1cnc3ccccn13)c(=O)n2Cc1cc(F)c(F)c(Cl)c1 [Compound I-0623] | > 7.00 | > 7.00 | –
21 | [2H]C([2H])([2H])O[C@@H]1CCN(c2cc3c(c(OC)n2)c(=O)n(-c2cnc4cc(F)ccn24)c(=O)n3-c2ccc(F)c(C(F)(F)F)c2)C1 [Compound I-1011] | > 7.00 | > 7.00 | –
22 | COc1nc(N2CCC(F)(F)C2)cc2c1c(=O)n(-c1cnc3cc(F)ccn13)c(=O)n2-c1ccc(F)c(Cl)c1 [Compound I-0728] | – | 8.29 | 8.12
23 | COc1nc(N2CCC(F)(F)C2)cc2c1c(=O)n(-c1cncc(C#N)c1)c(=O)n2-c1ccc(F)c(Cl)c1 [Compound I-0977] | > 7.00 | > 7.00 | –
24 | CCNc1cc2c(c(OC)n1)c(=O)n(-c1cnc3cc(F)ccn13)c(=O)n2-c1ccc(F)c(Cl)c1 [Compound I-0996] | > 7.00 | > 7.00 | –
25 | [2H]C([2H])([2H])O[C@@H]1CCN(c2cc3c(c(OC)n2)c(=O)n(-c2cnc4cc(F)ccn24)c(=O)n3-c2cc(Cl)c(F)c(OC)c2)C1 [Compound I-0764] | > 7.00 | > 7.00 | –

Row | Compound | pEC50 (SARS-CoV-2; [1]) | pIC50 (SARS-CoV-2 3CL protease) | pEC50 (SARS-CoV-2; [2])
26 | COc1nc2c(=O)n(Cc3ncn(C)n3)c(=O)n(Cc3cc(C#N)c(F)cc3C)c2cc1-c1cc(C#N)ccc1Cl [Compound I-0723] | > 7.00 | > 7.00 | –
27 | COc1nc(N2CC[C@@H](C(=O)N3CCOCC3)C2)cc2c1c(=O)n(-c1cnc3cc(F)ccn13)c(=O)n2-c1ccc(F)c(Cl)c1 [Compound I-0627] | > 7.00 | > 7.00 | –
28 | COc1cc(-c2cc3nc(C(F)F)[nH]c3cc2Cl)cc2c1c(=O)n(Cc1ncn(C)n1)c(=O)n2Cc1cc(F)c(F)c(F)c1 [Compound I-0848] | 6.00 to 7.00 | > 7.00 | –
29 | COc1nc(N2CCC2)cc2c1c(=O)n(-c1cnc3cc(F)ccn13)c(=O)n2-c1ccc(F)c(Cl)c1 [Compound I-1002] | > 7.00 | > 7.00 | –
30 | COc1nc(N2CC[C@@H](C#N)C2)cc2c1c(=O)n(-c1cncc(OCF)c1)c(=O)n2-c1ccc(F)c(F)c1 [Compound I-0980] | > 7.00 | > 7.00 | –
31 | CCC(=O)c1ccc(Cl)c(-c2cc(OC)c3c(=O)n(Cc4ncn(C)n4)c(=O)n(Cc4cc(F)c(F)c(F)c4)c3c2)c1 [Compound I-0657] | – | 7.70 | 7.12
32 | COc1nc(N2CCC(F)(F)C2)cc2c1c(=O)n(-c1cnc3cc(F)c(F)cn13)c(=O)n2-c1ccc(F)c(Cl)c1 [Compound I-1009] | > 7.00 | > 7.00 | –
33 | Cn1cnc(Cn2c(=O)c3c(cc(-c4cc(C#N)ccc4Cl)c[n+]3[O-])n(Cc3cc(F)c(F)c(F)c3)c2=O)n1 [Compound I-0697] | 5.00 to 6.00 | 6.00 to 7.00 | –
34 | COc1cc(-c2ncccc2Cl)cc2c1c(=O)n(Cc1ncn(C)n1)c(=O)n2Cc1cc(F)c(F)c(F)c1 [Compound I-0838] | 6.00 to 7.00 | > 7.00 | –
35 | [2H]C([2H])([2H])O[C@@H]1CCN(c2cc3c(c(OC)n2)c(=O)n(-c2cncc(OC(F)F)c2)c(=O)n3-c2ccc(F)c(Cl)c2)C1 [Compound I-0971] | > 7.00 | > 7.00 | –
36 | Cn1cnc(Cn2c(=O)c3c4ncn(C)c4c(-c4cc(C#N)ccc4Cl)cc3n(Cc3cc(F)c(F)c(F)c3)c2=O)n1 [Compound I-0556] | – | 9.03 | 6.42
37 | COc1nc(N2CC[C@@H](C#N)C2)cc2c1c(=O)n(-c1cncc(Cl)c1)c(=O)n2-c1ccc(F)c(F)c1 [Compound I-0949] | > 7.00 | > 7.00 | –
38 | COc1nc2c(=O)n(Cc3ncn(C)n3)c(=O)n(Cc3cc(F)c(F)c(Cl)c3)c2cc1-c1ncc(F)cc1Cl [Compound I-0578] | > 7.00 | > 7.00 | –
39 | [2H]C([2H])([2H])O[C@@H]1CCN(c2cc3c(c(OC)n2)c(=O)n(-c2cncc(C#N)c2)c(=O)n3-c2ccc(F)c(F)c2)C1 [Compound I-1026] | > 7.00 | > 7.00 | –
40 | COc1nc(NC(C)C)cc2c1c(=O)n(-c1cnc3cc(F)ccn13)c(=O)n2-c1ccc(F)c(Cl)c1 [Compound I-0651] | – | 8.07 | 7.89
41 | COc1nc(N2CCOCC2)cc2c1c(=O)n(-c1cnc3cc(F)ccn13)c(=O)n2-c1ccc(F)c(Cl)c1 [Compound I-0743] | – | 7.66 | 7.71
42 | COc1nc2c(=O)n(Cc3ncn(C)n3)c(=O)n(Cc3cc(F)c(F)c(Cl)c3)c2cc1-c1nc(C#N)ccc1Cl [Compound I-0819] | > 7.00 | > 7.00 | –
43 | COc1nc(N2C[C@@H](F)[C@@H](F)C2)cc2c1c(=O)n(-c1cnc3cc(F)ccn13)c(=O)n2-c1ccc(F)c(F)c1 [Compound I-1020] | > 7.00 | > 7.00 | –
44 | COc1nc2c(=O)n(Cc3ncn(C)n3)c(=O)n(Cc3cc(F)c(F)c(C#N)c3)c2cc1-c1cc(C#N)ccc1Cl [Compound I-0721] | > 7.00 | > 7.00 | –
45 | COc1nc2c(=O)n(Cc3ncn(C)n3)c(=O)n(Cc3cc(C#N)c(F)cc3Cl)c2cc1-c1cc(C#N)ccc1Cl [Compound I-0722] | > 7.00 | > 7.00 | –
46 | COc1nc(N2CC[C@@H](O)C2)cc2c1c(=O)n(-c1cncc(OCF)c1)c(=O)n2-c1ccc(F)c(Cl)c1 [Compound I-0956] | > 7.00 | > 7.00 | –
47 | [2H]C([2H])([2H])O[C@@H]1CCN(c2cc3c(c(OC)n2)c(=O)n(-c2cnc4cc(F)ccn24)c(=O)n3-c2ccc(F)c(C(F)F)c2)C1 [Compound I-0981] | > 7.00 | > 7.00 | –
48 | N#Cc1ccc(Cl)c(-c2cc3c(c(=O)n(-c4cncc(Cl)c4)c(=O)n3Cc3cc(F)c(F)c(F)c3)c3occc23)c1 [Compound I-0863] | – | 8.28 | 7.28
49 | COc1cc(-c2c(Cl)ccc3c2CC(=O)N3C)cc2c1c(=O)n(Cc1ncn(C)n1)c(=O)n2Cc1cc(F)c(F)c(F)c1 [Compound I-0869] | > 7.00 | > 7.00 | –
50 | CC(C)=Cc1cc2c(c(=O)n(Cc3ncn(C)n3)c(=O)n2Cc2cc(F)c(F)c(Cl)c2)c2nccnc12 [Compound I-0572] | – | 7.43 | 7.55
